Where “and” joins values, the source holds several entries; their conditions need not be identical. Equal entries are not always repeated. Structures can show the parent of a compound that is named as a salt.
Experiments:
[1] = target: T1, EcaGST A3-3 (Equus caballus, UniProt M9ZT87); assay: Inhibition of EcaGST A3-3 activity, GSH conjugation with CDNB; assay type: biochemical, Equus ferus caballus; settings: for inhibition at 10 µM / Inhibition (%) of EcaGST A3-3: 10 μM inhibitor, sodium phosphate pH 6.5, 30°C; for inhibition at 10 µM: read-out: Inhibition (%) of EcaGST A3-3; for IC50: read-out: IC50 EcaGST A3-3, substrate CDNB
T1 sequence (M9ZT87 entry or part of it): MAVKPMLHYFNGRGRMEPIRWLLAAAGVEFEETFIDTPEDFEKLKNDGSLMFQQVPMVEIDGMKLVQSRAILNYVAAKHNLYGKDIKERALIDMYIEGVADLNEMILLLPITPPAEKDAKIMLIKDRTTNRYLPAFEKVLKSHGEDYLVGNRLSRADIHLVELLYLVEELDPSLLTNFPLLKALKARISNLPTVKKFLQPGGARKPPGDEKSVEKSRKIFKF
Experimental: The final solvent concentration in the reaction system was kept at 5% (v/v) as a maximum.
(§1) The conjugation of GSH with the electrophilic substrate CDNB was used as a biochemical assay for general activity measurements. Screening of the US Drug library for inhibition was done in triplicates in 96-well plates in a Thermo Scientific Multiskan GO spectrophotometer. The conjugation activity at 30°C was monitored at 340 nm for 1 min in 0.1 M sodium phosphate buffer at pH 6.5 and 10 μM inhibitor concentration in a final volume of 300 μL. Initial concentrations of GSH and CDNB were 1 mM.
Assay conditions for inhibition measurements of enzyme activity with CDNB were the following: EcaGST A3-3 15 nM, initial concentrations of GSH and CDNB 1 mM, inhibitor concentrations varying from 0.029 μM to 15 μM, in 100 mM Na2HPO4/NaH2PO4 at pH 6.5.
The reactions were followed spectrophotometrically for 1 min at 30°C using a Shimadzu UV-2501 PC spectrophotometer (Shimadzu Inc.). All experiments included triplicate measurements in each data point.
The equation for competitive inhibition fitted by non-linear regression was v=Vmax[S]/KM(1+[I]/Ki)+[S] where [S] is the substrate concentrations and [I] is the inhibitor concentration.

[2] = target: T1, EcaGST A3-3; assay: Inhibition of EcaGST A3-3 steroid double-bond isomerase activity with Δ^5-AD; assay type: biochemical, Equus ferus caballus; settings: for IC50 EcaGST A3-3, substrate Δ^5-AD: 0.1 mM Δ^5-AD, 25 mM sodium phosphate pH 8.0, 30°C
[3] = target: T2, HsaGST M2-2 (Homo sapiens, UniProt P28161); assay: Inhibition of HsaGST M2-2 CDNB activity; assay type: biochemical; settings: 1 mM GSH, 1 mM CDNB, pH 6.5, 30°C; for inhibition at 10 µM: read-out: Inhibition (%) of HsaGST M2-2; for IC50: CDNB activity, read-out: IC50 HsaGST M2-2
T2 construct: made in house
T2 sequence (P28161 1-218): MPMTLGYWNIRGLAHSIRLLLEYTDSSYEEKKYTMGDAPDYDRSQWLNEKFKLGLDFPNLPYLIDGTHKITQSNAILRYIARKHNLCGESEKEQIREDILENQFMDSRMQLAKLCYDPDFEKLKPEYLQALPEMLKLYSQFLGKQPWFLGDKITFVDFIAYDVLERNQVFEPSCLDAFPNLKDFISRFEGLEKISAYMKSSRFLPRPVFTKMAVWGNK
Experimental: (§2) EcaGST A3-3 [10], HsaGST A3-3 [12] and HsaGST M2-2 [13] were cloned, expressed and purified as described previously. Protein concentration was determined by means of the Bradford assay.
as §1
(§3) For understanding the effects of pharmacological interventions based on GST inhibitors, it is important to know the selectivity among the numerous GSTs. […] All values were determined with CDNB, which is a common substrate for all the enzymes.

[4] = system: HsaGST P1-1; parameters: method as in PMID 23769903; settings: 3.3 μM inhibitor, 1 mM GSH, 1 mM CDNB, pH 6.5, 30°C; cited from earlier work
[5] = target: T3, HsaGST A3-3 (Homo sapiens, UniProt Q16772); assay: Inhibition of HsaGST A3-3 CDNB activity; assay type: biochemical; settings: 1 mM GSH, 1 mM CDNB, pH 6.5, 30°C; for IC50: CDNB activity; for inhibition at 10 µM: pH 6.5, 10 μM inhibitor, read-out: Inhibition (%) of HsaGST A3-3
T3 construct: made in house
T3 sequence (Q16772 1-222): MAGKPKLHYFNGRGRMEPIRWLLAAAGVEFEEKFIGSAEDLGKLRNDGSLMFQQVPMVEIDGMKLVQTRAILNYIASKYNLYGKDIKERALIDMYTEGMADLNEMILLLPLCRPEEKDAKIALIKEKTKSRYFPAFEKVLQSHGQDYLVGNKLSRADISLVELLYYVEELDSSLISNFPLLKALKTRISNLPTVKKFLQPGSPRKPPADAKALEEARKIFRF
Experimental: as §2, §1, §3

[6] = system: HsaGST S1-1; parameters: method as in PMID 25603235; settings: 1 mM GSH, 1 mM CDNB, pH 6.5, 30°C, cited from earlier work; for Inhibition (%) of HsaGST S1-1: 10 μM inhibitor; for IC50: CDNB activity
[7] = 1 mM CDNB, 1 mM GSH, 100 mM sodium phosphate pH 6.5, 30°C

## CCN(CCCc1ccccc1)CCCc1ccccc1 [Alverine citrate]
[1]; 1 mM GSH, 1 mM CDNB
  inhibition at 10 µM: 31 ± 17%

## NCC(=O)CCC(=O)O [Aminolevulinic acid hydrochloride]
[1]; 1 mM GSH, 1 mM CDNB
  inhibition at 10 µM: 32 ± 11%

## O=C1c2c(O)cccc2Cc2cccc(O)c21 [Anthralin]
[2]
  IC50: 85 ± 4.8 nM
[2]; 1 mM GSH
  IC50 EcaGST A3-3, substrate Δ^5-AD: submicromolar range
[2]; Ki, EcaGST A3-3, substrate Δ^5-AD, Δ^5-AD varied, 1 mM GSH, 0.09 μM inhibitor
  Ki: 90 nM and 93 nM
[2]; dose-response curve, substrate Δ^5-AD, mean ± SD
  Hill coefficient, Δ^5-AD inhibition: 1.9±0.19
[2]; ratio of IC50 values CDNB vs Δ^5-AD, EcaGST A3-3
  Times more potent with Δ^5-AD as substrate than with CDNB: approximately 25 times
[2]; Δ^5-AD varied, 1 mM GSH
  Inhibition modality, substrate Δ^5-AD: Competitive
[3]; 10 μM inhibitor
  inhibition at 10 µM: 80%
[4]
  Inhibition (%) of HsaGST P1-1: 22%
[5]
  IC50: 720 nM
  inhibition at 10 µM: 88%
[6]
  Inhibition (%) of HsaGST S1-1: 84%
  IC50: 24000 nM
[1]; 1 mM GSH, 1 mM CDNB
  inhibition at 10 µM: 96 ± 1.8%
[1]; [7]
  IC50: 2100 ± 270 nM
[1]; dose-response curve, substrate CDNB, mean ± SD
  Hill coefficient, CDNB inhibition: 2.0±0.43

## OC[C@H]1O[C@H]([S-])[C@H](O)[C@@H](O)[C@@H]1O.[Au+] [Aurothioglucose]
[2]; 1 mM GSH
  IC50 EcaGST A3-3, substrate Δ^5-AD: Anomalous curve
[3]; 10 μM inhibitor
  Inhibition (%) of HsaGST M2-2: 85%
[3]
  IC50: 12000 nM
[4]
  Inhibition (%) of HsaGST P1-1: < 4%
[5]; 10 μM inhibitor
  Inhibition (%) of HsaGST A3-3: 96%
[5]
  IC50: 910 nM
[6]
  Inhibition (%) of HsaGST S1-1: 24%
[1]; 1 mM GSH, 1 mM CDNB
  Inhibition (%) of EcaGST A3-3: 78 ± 28%
[1]; [7]
  IC50: 850 ± 120 nM

## O=C(Nc1ccc(C(=O)O)c(O)c1)c1ccccc1 [Benzoylpas]
[3]
  IC50: 2500 nM

## O=[N+]([O-])c1ccc(Cl)c([N+](=O)[O-])c1 [CDNB, 1-chloro-2,4-dinitrobenzene]
[1]; read-out: Km of substrate CDNB with EcaGST A3-3, 1 mM GSH, fitted with and without ethacrynic acid
  Km: 1260 ± 82 µM

## CCCCCCCCCCCCCCCC(=O)OC[C@@H](NC(=O)C(Cl)Cl)[C@H](O)c1ccc([N+](=O)[O-])cc1 [Chloramphenicol palmitate]
[1]; 1 mM GSH, 1 mM CDNB
  inhibition at 10 µM: 40 ± 1%

## CC[C@H]1OC(=O)[C@H](C)[C@@H](O[C@H]2C[C@@](C)(OC)[C@@H](O)[C@H](C)O2)[C@H](C)[C@@H](O[C@@H]2O[C@H](C)C[C@H](N(C)C)[C@H]2O)[C@](C)(OC)C[C@@H](C)C(=O)[C@H](C)[C@@H](O)[C@]1(C)O [Clarithromycin]
[1]; 1 mM GSH, 1 mM CDNB
  inhibition at 10 µM: 36 ± 7%

## Oc1c(I)cc(Cl)c2cccnc12 [Clioquinol]
[1]; 1 mM GSH, 1 mM CDNB
  inhibition at 10 µM: 64 ± 21%

## CC(C)/N=c1\cc2n(-c3ccc(Cl)cc3)c3ccccc3nc-2cc1Nc1ccc(Cl)cc1 [Clofazimine]
[1]; 1 mM GSH, 1 mM CDNB
  inhibition at 10 µM: 52 ± 14%

## C[C@]12CC[C@@H]3c4ccc(OS(=O)(=O)O)cc4CC[C@H]3[C@@H]1CCC2=O [Estropipate]
[1]; 1 mM GSH, 1 mM CDNB
  inhibition at 10 µM: 37 ± 23%

## C=C1C[C@@H]2[C@H](CC[C@]3(C)C(=O)CC[C@@H]23)[C@@]2(C)C=CC(=O)C=C12 [Exemestane]
[1]; 1 mM GSH, 1 mM CDNB
  inhibition at 10 µM: 41 ± 12%

## CC(C)n1c(/C=C/C(O)CC(O)CC(=O)O)c(-c2ccc(F)cc2)c2ccccc21 (stereo not shown) [Fluvastatin sodium]
[1]; 1 mM GSH, 1 mM CDNB
  inhibition at 10 µM: 31 ± 24%

## OCCOCCN1CCN(C(c2ccccc2)c2ccc(Cl)cc2)CC1 (stereo not shown) [Hydroxyzine pamoate]
[3]
  IC50: 760 nM
[1]; 1 mM GSH, 1 mM CDNB
  inhibition at 10 µM: ≤ 30%

## CC[C@H](C)C(=O)O[C@H]1C[C@@H](C)C=C2C=C[C@H](C)[C@H](CC[C@@H]3C[C@@H](O)CC(=O)O3)[C@H]21 [Lovastatin]
[1]; 1 mM GSH, 1 mM CDNB
  inhibition at 10 µM: 33 ± 15%

## COC(=O)Nc1nc2ccc(C(=O)c3ccccc3)cc2[nH]1 [Mebendazole]
[1]; 1 mM GSH, 1 mM CDNB
  inhibition at 10 µM: 35 ± 15%

## CC(C)NCC(O)c1cc(O)cc(O)c1 (stereo not shown) [Metaproterenol]
[1]; 1 mM GSH, 1 mM CDNB
  inhibition at 10 µM: 42 ± 24%

## COC(=O)C1=C(C)NC(C)=C(C(=O)OCC(C)C)C1c1ccccc1[N+](=O)[O-] (stereo not shown) [Nisoldipine]
[2]; 1 mM GSH
  IC50 EcaGST A3-3, substrate Δ^5-AD: Anomalous curve
[3]; 10 μM inhibitor
  inhibition at 10 µM: 35%
[4]
  Inhibition (%) of HsaGST P1-1: 14%
[5]
  IC50: 4100 nM
  inhibition at 10 µM: 70%
[6]
  Inhibition (%) of HsaGST S1-1: 42%
  IC50: 29000 nM
[1]; 1 mM GSH, 1 mM CDNB
  inhibition at 10 µM: 75 ± 2.3%
[1]; [7]
  IC50 EcaGST A3-3, substrate CDNB: Anomalous curve

## CN1CCCN=C1/C=C/c1cccc(O)c1 [Oxantel pamoate]
[3]
  IC50: 1700 nM

## CCc1ccc(CCOc2ccc(CC3SC(=O)NC3=O)cc2)nc1 (stereo not shown) [Pioglitazone]
[3]
  IC50: 5900 nM

## Nc1ccc(C(=O)[O-])cc1.[K+] [Potassium p-aminobenzoate]
[1]; 1 mM GSH, 1 mM CDNB
  Inhibition (%) of EcaGST A3-3: 30±16%

## CN1CCCN=C1/C=C/c1cccs1 [Pyrantel pamoate]
[3]
  IC50: 1400 nM

## Cc1cc(/C=C/c2ccc3cc(N(C)C)ccc3[n+]2C)c(C)n1-c1ccccc1 [Pyrvinium pamoate]
[3]
  IC50: 1200 nM

## C[n+]1cc2c3c(ccc2c2ccc4cc5c(cc4c21)OCO5)OCO3 [Sanguinarine sulfate]
[1]; 1 mM GSH, 1 mM CDNB
  inhibition at 10 µM: 47 ± 19%

## O=C(O)c1cc(/N=N/c2ccc(S(=O)(=O)Nc3ccccn3)cc2)ccc1O [Sulfasalazine]
[3]
  IC50: 300 nM
[1]; 1 mM GSH, 1 mM CDNB
  inhibition at 10 µM: ≤ 30%

## CC1=C(CC(=O)O)c2cc(F)ccc2/C1=C\c1ccc([S+](C)[O-])cc1 (stereo not shown) [Sulindac]
[3]
  IC50: 23000 nM

## Cc1ccc(C(=O)Nc2ccc(S(=O)(=O)O)c3cc(S(=O)(=O)O)cc(S(=O)(=O)O)c23)cc1NC(=O)c1cccc(NC(=O)Nc2cccc(C(=O)Nc3cc(C(=O)Nc4ccc(S(=O)(=O)O)c5cc(S(=O)(=O)O)cc(S(=O)(=O)O)c45)ccc3C)c2)c1 [Suramin]
[3]
  IC50: 620 nM
[6]
  IC50: 300 nM
[1]; 1 mM GSH, 1 mM CDNB
  inhibition at 10 µM: ≤ 30%

Reference: publication PMC6428247, “Potent inhibitors of equine steroid isomerase EcaGST A3-3” (PLoS ONE, 2019)
